Test results published in the kinase profiling compilation of Christmann-Franck et al. (2016).

Assays:
Test in all cases: radiometric filter-binding kinase assay
IGF1R (human) = IGF1R (human) (UniProt P08069)
CDK2 CCNA2 (human) = CDK2 CCNA2 (human) (UniProt P20248+P24941)
CAMKK2 (human) = CAMKK2 (human) (UniProt Q96RR4)
PRKCZ (human) = PRKCZ (human) (UniProt Q05513)
PIM2 (human) = PIM2 (human) (UniProt Q9P1W9)
PRKACA (human) = PRKACA (human) (UniProt P17612)
LCK (mouse) = settings: accession and sequence are those of the human protein
MKNK1 (human) = MKNK1 (human) (UniProt Q9BUB5)
RIPK2 (human) = RIPK2 (human) (UniProt O43353)
NUAK1 (human) = NUAK1 (human) (UniProt O60285)
JAK2 JH1 JH2 (human) = JAK2 JH1 JH2 (human) (UniProt O60674)
SYK (human) = SYK (human) (UniProt P43405)
PRKAA1 or PRKAA2 (rat) = settings: accession and sequence are those of the human protein
CSNK2A1 (human) = CSNK2A1 (human) (UniProt P68400)
MAP3K9 (human) = MAP3K9 (human) (UniProt P80192)
PAK4 (human) = PAK4 (human) (UniProt O96013)
MAPK10 (human) = MAPK10 (human) (UniProt P53779)
DYRK1A (human) = DYRK1A (human) (UniProt Q13627)
EPHB3 (human) = EPHB3 (human) (UniProt P54753)
AURKB (human) = AURKB (human) (UniProt Q96GD4)
INSR (human) = INSR (human) (UniProt P06213)
YES1 (human) = YES1 (human) (UniProt P07947)
NTRK1 (human) = NTRK1 (human) (UniProt P04629)
MARK3 (human) = MARK3 (human) (UniProt P27448)
INSRR (human) = INSRR (human) (UniProt P14616)
[1] = system: AKT2 (human), P31751 [S474D]
CHEK1 (human) = CHEK1 (human) (UniProt O14757)
MAP2K1 (human) = MAP2K1 (human) (UniProt Q02750)
MAPK13 (human) = MAPK13 (human) (UniProt O15264)
SRC (human) = SRC (human) (UniProt P12931)
CaMK1 (human) = CaMK1 (human) (UniProt Q14012)
MAP3K11 (human) = MAP3K11 (human) (UniProt Q16584)
MARK4 (human) = MARK4 (human) (UniProt Q96L34)
MST4 (human) = MST4 (human) (UniProt Q9P289)

Sequence of INSR (human) (P06213 whole entry, looked up): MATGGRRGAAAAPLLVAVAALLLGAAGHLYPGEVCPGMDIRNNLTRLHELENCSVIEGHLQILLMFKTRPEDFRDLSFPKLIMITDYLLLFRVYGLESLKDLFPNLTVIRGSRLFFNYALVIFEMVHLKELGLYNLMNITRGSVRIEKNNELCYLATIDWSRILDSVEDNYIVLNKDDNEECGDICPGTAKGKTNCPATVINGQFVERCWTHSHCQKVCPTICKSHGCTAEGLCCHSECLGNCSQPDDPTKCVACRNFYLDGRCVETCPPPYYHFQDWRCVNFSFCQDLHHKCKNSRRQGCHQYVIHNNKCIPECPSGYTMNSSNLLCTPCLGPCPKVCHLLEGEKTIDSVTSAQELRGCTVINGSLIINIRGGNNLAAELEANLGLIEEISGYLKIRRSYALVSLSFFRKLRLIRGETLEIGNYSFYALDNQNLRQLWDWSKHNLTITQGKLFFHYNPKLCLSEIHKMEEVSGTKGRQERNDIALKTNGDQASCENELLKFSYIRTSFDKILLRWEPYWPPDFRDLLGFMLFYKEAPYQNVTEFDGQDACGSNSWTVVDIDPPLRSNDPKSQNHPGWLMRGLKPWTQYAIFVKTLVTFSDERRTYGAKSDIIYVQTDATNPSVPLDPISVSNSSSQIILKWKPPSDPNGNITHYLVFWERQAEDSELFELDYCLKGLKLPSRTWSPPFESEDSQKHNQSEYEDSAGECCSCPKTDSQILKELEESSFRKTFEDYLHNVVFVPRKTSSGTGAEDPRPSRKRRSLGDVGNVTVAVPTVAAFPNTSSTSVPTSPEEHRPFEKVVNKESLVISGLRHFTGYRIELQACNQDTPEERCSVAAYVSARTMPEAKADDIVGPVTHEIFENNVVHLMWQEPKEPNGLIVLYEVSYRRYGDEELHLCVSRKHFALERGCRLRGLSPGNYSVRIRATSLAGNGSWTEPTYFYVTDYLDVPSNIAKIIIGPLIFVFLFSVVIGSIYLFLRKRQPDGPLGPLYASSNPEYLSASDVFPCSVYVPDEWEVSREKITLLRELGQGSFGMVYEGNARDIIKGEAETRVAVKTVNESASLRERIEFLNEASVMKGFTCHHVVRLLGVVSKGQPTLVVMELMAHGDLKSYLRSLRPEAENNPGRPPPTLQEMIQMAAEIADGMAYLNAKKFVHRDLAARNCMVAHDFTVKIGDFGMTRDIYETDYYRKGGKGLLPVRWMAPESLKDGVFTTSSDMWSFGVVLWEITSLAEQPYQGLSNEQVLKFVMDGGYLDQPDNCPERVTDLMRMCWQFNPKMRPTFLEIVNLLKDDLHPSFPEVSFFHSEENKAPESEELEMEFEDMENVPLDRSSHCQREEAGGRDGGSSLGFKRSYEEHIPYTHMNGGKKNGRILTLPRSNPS
Sequence of PIM2 (human) (Q9P1W9 whole entry, looked up): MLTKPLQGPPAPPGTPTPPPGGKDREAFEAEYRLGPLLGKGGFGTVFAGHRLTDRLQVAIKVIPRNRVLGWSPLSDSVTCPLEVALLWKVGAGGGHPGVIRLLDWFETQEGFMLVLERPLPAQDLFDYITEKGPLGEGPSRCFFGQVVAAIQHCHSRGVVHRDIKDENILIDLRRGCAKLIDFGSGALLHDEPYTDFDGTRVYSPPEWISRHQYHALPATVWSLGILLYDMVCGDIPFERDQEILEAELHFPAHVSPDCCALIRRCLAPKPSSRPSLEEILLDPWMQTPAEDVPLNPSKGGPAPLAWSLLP
Sequence of EPHB3 (human) (P54753 whole entry, looked up): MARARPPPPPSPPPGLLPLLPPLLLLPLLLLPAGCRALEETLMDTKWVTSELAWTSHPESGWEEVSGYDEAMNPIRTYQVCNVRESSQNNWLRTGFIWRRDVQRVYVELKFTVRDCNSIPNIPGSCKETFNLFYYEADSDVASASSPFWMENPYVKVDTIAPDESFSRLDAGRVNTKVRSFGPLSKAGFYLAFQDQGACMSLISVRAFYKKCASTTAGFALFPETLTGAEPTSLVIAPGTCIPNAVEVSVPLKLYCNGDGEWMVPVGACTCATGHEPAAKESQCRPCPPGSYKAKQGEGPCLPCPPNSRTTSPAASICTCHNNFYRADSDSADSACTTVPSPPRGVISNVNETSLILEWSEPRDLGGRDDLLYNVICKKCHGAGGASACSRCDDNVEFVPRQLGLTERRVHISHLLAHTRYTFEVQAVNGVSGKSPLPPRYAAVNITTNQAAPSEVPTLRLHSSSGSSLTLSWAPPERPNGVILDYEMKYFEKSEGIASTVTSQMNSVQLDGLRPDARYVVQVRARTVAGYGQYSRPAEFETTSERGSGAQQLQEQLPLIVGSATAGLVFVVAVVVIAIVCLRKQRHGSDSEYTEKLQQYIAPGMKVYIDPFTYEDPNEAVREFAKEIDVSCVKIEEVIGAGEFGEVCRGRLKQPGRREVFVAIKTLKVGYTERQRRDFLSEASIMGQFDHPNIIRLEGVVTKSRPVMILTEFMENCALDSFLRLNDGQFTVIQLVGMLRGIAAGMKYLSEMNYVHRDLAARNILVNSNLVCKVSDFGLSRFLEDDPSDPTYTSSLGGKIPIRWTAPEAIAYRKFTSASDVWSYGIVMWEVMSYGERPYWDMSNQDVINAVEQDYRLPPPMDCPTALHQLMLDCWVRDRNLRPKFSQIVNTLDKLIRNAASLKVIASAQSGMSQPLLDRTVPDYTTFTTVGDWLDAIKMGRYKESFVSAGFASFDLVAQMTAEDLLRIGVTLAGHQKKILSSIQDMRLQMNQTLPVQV
Sequence of AKT2 (human), P31751 [S474D] (P31751 whole entry S474D, looked up): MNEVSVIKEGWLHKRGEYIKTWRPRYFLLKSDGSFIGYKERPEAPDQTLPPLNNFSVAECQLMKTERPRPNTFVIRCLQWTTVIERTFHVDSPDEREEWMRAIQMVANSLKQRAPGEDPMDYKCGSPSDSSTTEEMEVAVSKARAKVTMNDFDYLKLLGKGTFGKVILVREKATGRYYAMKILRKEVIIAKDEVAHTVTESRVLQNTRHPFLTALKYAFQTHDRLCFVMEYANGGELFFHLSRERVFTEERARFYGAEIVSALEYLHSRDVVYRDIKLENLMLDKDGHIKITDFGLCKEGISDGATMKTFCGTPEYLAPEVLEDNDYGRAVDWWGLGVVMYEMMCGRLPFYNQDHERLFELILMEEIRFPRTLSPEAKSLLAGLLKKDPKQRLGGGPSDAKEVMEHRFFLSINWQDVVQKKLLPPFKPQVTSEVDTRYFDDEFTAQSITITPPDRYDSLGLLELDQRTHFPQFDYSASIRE
Sequence of INSRR (human) (P14616 whole entry, looked up): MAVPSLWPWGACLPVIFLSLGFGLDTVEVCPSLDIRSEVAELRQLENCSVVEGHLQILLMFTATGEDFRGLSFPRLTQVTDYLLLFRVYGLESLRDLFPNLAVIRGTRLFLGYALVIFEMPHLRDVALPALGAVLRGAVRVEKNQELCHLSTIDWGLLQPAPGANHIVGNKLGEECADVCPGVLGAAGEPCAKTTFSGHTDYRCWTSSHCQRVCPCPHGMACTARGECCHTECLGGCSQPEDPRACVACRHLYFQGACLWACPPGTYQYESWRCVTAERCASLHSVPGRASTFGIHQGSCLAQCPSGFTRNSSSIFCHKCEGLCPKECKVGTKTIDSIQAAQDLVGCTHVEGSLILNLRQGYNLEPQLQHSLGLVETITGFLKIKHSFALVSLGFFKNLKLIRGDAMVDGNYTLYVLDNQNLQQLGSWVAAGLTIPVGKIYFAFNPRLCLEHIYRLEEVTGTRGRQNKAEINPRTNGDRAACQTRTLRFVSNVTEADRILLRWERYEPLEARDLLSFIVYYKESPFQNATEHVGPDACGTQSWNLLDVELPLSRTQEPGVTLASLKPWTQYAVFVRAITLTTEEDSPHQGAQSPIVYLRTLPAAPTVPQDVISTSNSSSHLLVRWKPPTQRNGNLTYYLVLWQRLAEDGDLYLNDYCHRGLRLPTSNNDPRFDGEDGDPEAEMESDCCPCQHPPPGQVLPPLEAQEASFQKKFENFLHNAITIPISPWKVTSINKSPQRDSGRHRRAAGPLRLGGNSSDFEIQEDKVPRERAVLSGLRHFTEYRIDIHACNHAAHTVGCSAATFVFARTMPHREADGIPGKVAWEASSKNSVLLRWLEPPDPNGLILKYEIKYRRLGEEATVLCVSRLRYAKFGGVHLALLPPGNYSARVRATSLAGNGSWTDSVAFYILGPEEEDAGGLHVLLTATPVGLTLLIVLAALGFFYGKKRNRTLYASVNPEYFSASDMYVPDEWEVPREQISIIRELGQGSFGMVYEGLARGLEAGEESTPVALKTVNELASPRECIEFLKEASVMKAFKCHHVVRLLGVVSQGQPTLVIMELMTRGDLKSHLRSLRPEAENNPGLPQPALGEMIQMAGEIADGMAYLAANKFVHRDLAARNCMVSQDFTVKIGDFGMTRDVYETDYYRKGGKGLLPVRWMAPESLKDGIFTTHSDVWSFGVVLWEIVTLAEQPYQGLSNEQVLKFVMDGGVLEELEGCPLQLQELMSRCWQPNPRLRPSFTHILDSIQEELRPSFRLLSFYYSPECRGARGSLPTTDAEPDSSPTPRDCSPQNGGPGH
Sequence of PAK4 (human) (O96013 whole entry, looked up): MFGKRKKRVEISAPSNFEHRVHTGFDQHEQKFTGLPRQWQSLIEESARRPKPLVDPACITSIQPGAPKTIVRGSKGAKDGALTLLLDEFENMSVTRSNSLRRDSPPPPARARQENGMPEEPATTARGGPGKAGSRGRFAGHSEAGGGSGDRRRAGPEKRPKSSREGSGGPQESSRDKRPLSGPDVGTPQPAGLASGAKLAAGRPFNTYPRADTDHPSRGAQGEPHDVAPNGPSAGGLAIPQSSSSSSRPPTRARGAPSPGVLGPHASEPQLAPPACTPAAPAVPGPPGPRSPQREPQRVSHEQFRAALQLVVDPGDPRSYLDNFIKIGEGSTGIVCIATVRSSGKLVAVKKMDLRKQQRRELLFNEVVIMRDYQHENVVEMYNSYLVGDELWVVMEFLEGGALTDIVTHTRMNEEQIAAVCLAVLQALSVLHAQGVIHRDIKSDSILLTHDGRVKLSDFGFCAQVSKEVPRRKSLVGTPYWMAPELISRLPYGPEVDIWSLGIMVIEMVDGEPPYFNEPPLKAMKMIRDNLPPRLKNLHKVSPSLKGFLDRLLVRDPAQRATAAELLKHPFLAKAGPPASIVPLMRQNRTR

residual activity (IGF1R (human); compound 100.0 µM): 92% | residual activity (IGF1R (human); compound 1000.0 µM): 117% | residual activity (CDK2 CCNA2 (human); compound 10.0 µM): 77% | residual activity (CDK2 CCNA2 (human); compound 100.0 µM): 75% | residual activity (CDK2 CCNA2 (human); compound 1000.0 µM): 87% | residual activity (CAMKK2 (human); compound 100.0 µM): 101% | residual activity (CAMKK2 (human); compound 1000.0 µM): 93% | residual activity (PRKCZ (human); compound 10.0 µM): 89% | residual activity (PRKCZ (human); compound 100.0 µM): 103% | residual activity (PIM2 (human); compound 10.0 µM): 117% | residual activity (PIM2 (human); compound 100.0 µM): 109% | residual activity (PIM2 (human); compound 1000.0 µM): 116% | residual activity (PRKACA (human); compound 10.0 µM): 92% | residual activity (PRKACA (human); compound 100.0 µM): 96% | residual activity (PRKACA (human); compound 1000.0 µM): 99% | residual activity (LCK (mouse); compound 10.0 µM): 74% | residual activity (LCK (mouse); compound 100.0 µM): 72% | residual activity (LCK (mouse); compound 1000.0 µM): 84% | residual activity (MKNK1 (human); compound 10.0 µM): 101% | residual activity (MKNK1 (human); compound 100.0 µM): 103% | residual activity (MKNK1 (human); compound 1000.0 µM): 105% | residual activity (RIPK2 (human); compound 10.0 µM): 93% | residual activity (RIPK2 (human); compound 100.0 µM): 104% | residual activity (RIPK2 (human); compound 1000.0 µM): 111% | residual activity (NUAK1 (human); compound 10.0 µM): 97% | residual activity (NUAK1 (human); compound 100.0 µM): 104% | residual activity (NUAK1 (human); compound 1000.0 µM): 101% | residual activity (JAK2 JH1 JH2 (human); compound 10.0 µM): 100% | residual activity (JAK2 JH1 JH2 (human); compound 100.0 µM): 105% | residual activity (JAK2 JH1 JH2 (human); compound 1000.0 µM): 116% | residual activity (SYK (human); compound 10.0 µM): 106% | residual activity (SYK (human); compound 100.0 µM): 118% | residual activity (SYK (human); compound 1000.0 µM): 116% | residual activity (PRKAA1 or PRKAA2 (rat); compound 10.0 µM): 106% | residual activity (PRKAA1 or PRKAA2 (rat); compound 100.0 µM): 104% | residual activity (PRKAA1 or PRKAA2 (rat); compound 1000.0 µM): 109% | residual activity (CSNK2A1 (human); compound 10.0 µM): 98% | residual activity (CSNK2A1 (human); compound 100.0 µM): 95% | residual activity (CSNK2A1 (human); compound 1000.0 µM): 91% | residual activity (MAP3K9 (human); compound 10.0 µM): 87% | residual activity (MAP3K9 (human); compound 100.0 µM): 112% | residual activity (MAP3K9 (human); compound 1000.0 µM): 135% | residual activity (PAK4 (human); compound 10.0 µM): 76% | residual activity (PAK4 (human); compound 100.0 µM): 88% | residual activity (PAK4 (human); compound 1000.0 µM): 95% | residual activity (MAPK10 (human); compound 10.0 µM): 103% | residual activity (MAPK10 (human); compound 100.0 µM): 103% | residual activity (MAPK10 (human); compound 1000.0 µM): 100% | residual activity (DYRK1A (human); compound 10.0 µM): 105% | residual activity (DYRK1A (human); compound 100.0 µM): 109% | residual activity (DYRK1A (human); compound 1000.0 µM): 113% | residual activity (EPHB3 (human); compound 10.0 µM): 97% | residual activity (EPHB3 (human); compound 100.0 µM): 105% | residual activity (EPHB3 (human); compound 1000.0 µM): 114% | residual activity (AURKB (human); compound 10.0 µM): 90% | residual activity (AURKB (human); compound 100.0 µM): 102% | residual activity (AURKB (human); compound 1000.0 µM): 98% | residual activity (INSR (human); compound 10.0 µM): 60% | residual activity (INSR (human); compound 100.0 µM): 62% | residual activity (INSR (human); compound 1000.0 µM): 79% | residual activity (YES1 (human); compound 10.0 µM): 114% | residual activity (YES1 (human); compound 100.0 µM): 116% | residual activity (YES1 (human); compound 1000.0 µM): 118% | residual activity (NTRK1 (human); compound 10.0 µM): 88% | residual activity (NTRK1 (human); compound 100.0 µM): 96% | residual activity (NTRK1 (human); compound 1000.0 µM): 83% | residual activity (MARK3 (human); compound 100.0 µM): 108% | residual activity (MARK3 (human); compound 1000.0 µM): 132% | residual activity (INSRR (human); compound 10.0 µM): 103% | residual activity (INSRR (human); compound 100.0 µM): 108% | residual activity (INSRR (human); compound 1000.0 µM): 112% | residual activity ([1]; compound 10.0 µM): 81% | residual activity ([1]; compound 100.0 µM): 93% | residual activity ([1]; compound 1000.0 µM): 106% | residual activity (CHEK1 (human); compound 100.0 µM): 93% | residual activity (CHEK1 (human); compound 1000.0 µM): 97% | residual activity (MAP2K1 (human); compound 100.0 µM): 109% | residual activity (MAP2K1 (human); compound 1000.0 µM): 118% | residual activity (MAPK13 (human); compound 10.0 µM): 92% | residual activity (MAPK13 (human); compound 100.0 µM): 102% | residual activity (SRC (human); compound 100.0 µM): 104% | residual activity (SRC (human); compound 1000.0 µM): 103% | residual activity (CaMK1 (human); compound 10.0 µM): 88% | residual activity (CaMK1 (human); compound 100.0 µM): 96% | residual activity (CaMK1 (human); compound 1000.0 µM): 99% | residual activity (MAP3K11 (human); compound 10.0 µM): 100% | residual activity (MAP3K11 (human); compound 100.0 µM): 97% | residual activity (MARK4 (human); compound 100.0 µM): 92% | residual activity (MARK4 (human); compound 1000.0 µM): 96% | residual activity (MST4 (human); compound 10.0 µM): 95% | residual activity (MST4 (human); compound 100.0 µM): 106%
Compound: COC(=O)/C=C/C(=O)OC
